Experimental data from PubChem BioAssay AID194 (DTP/NCI, 2004).
Where “and” joins values, the source holds several entries; their conditions need not be identical. Equal entries are not always repeated. Results filed as inconclusive are left out.

System: BDF1 mice, B16 melanoma s.c., survival/tumor T/C
Assay: NCI In Vivo Anticancer Drug Screen. Data for tumor model B16 Melanoma (subcutaneous) in B6D2F1 (BDF1) mice
Procedure: The antitumor activity of compounds was measured in mice bearing transplantable tumors. Survival or tumor size were measured and the results are expressed as the measurement made in the treated group (T) divided by the measurement made in the vehicle treated control group (C). The tumor model used in this assay is B16 Melanoma (subcutaneous) in B6D2F1 (BDF1) mice

[1] = endpoint: median survival time, dose: 0.5 mg/kg/injection, schedule: Q01DX009 (ip), vehicle: saline, higher = longer survival
[2] = endpoint: median survival time, dose: 12.5 mg/kg/injection, schedule: Q01DX009 (ip), vehicle: saline with Tween-80, higher = longer survival
[3] = endpoint: median survival time, dose: 25.0 mg/kg/injection, schedule: Q01DX009 (ip), vehicle: saline with Tween-80, higher = longer survival
[4] = endpoint: median survival time, dose: 50.0 mg/kg/injection, schedule: Q01DX009 (ip), vehicle: saline with Tween-80, higher = longer survival
[5] = endpoint: median survival time, dose: 100.0 mg/kg/injection, schedule: Q01DX009 (ip), vehicle: saline with Tween-80, higher = longer survival
[6] = endpoint: median survival time, dose: 4.0 mg/kg/injection, schedule: Q01DX009 (ip), vehicle: saline, higher = longer survival
[7] = endpoint: median survival time, dose: 8.0 mg/kg/injection, schedule: Q01DX009 (ip), vehicle: saline, higher = longer survival
[8] = endpoint: median survival time, dose: 16.0 mg/kg/injection, schedule: Q01DX009 (ip), vehicle: saline, higher = longer survival

In the case of `N=[N+]=CC(=O)CCC(NC(=O)C(CCC(=O)C=[N+]=N)NC(=O)CCC(N)C(=O)O)C(=O)O` (stereo not given), the T/C (endpoint: median survival time, dose: 0.1 mg/kg/injection, schedule: Q01DX009 (ip), vehicle: saline, higher = longer survival) is reported as 95 % of control, the T/C (endpoint: median survival time, dose: 0.2 mg/kg/injection, schedule: Q01DX009 (ip), vehicle: saline, higher = longer survival) is reported as 95 % of control and the T/C (endpoint: median survival time, dose: 0.4 mg/kg/injection, schedule: Q01DX009 (ip), vehicle: saline, higher = longer survival) is reported as 94 % of control. The T/C (endpoint: median survival time, dose: 0.8 mg/kg/injection, schedule: Q01DX009 (ip), vehicle: saline, higher = longer survival) was 91 % of control, the T/C (endpoint: median survival time, dose: 1.6 mg/kg/injection, schedule: Q01DX009 (ip), vehicle: saline, higher = longer survival) was 98 % of control and the T/C (endpoint: median survival time, dose: 12.5 micrograms/kg/injection, schedule: Q01DX009 (ip), vehicle: saline, higher = longer survival) was 113 % of control. For the same molecule, the T/C (endpoint: median survival time, dose: 25.0 micrograms/kg/injection, schedule: Q01DX009 (ip), vehicle: saline, higher = longer survival) was 117 % of control, the T/C (endpoint: median survival time, dose: 50.0 micrograms/kg/injection, schedule: Q01DX009 (ip), vehicle: saline, higher = longer survival) was 97 % of control and the T/C (endpoint: median survival time, dose: 100.0 micrograms/kg/injection, schedule: Q01DX009 (ip), vehicle: saline, higher = longer survival) was 102 % of control. The T/C (endpoint: median tumor weight (est.), dose: 0.2 mg/kg/injection, schedule: Q01DX009 (ip), vehicle: saline, higher = larger tumour) was 86 % of control.
For `COc1ccc(CCN2C(=O)CSC2=S)cc1OC`, the T/C (endpoint: median survival time, dose: 25.0 mg/kg/injection, schedule: Q01DX009 (ip), vehicle: Klucel (hydroxypropylcellulose) (HPC), higher = longer survival) was 120 % of control, the T/C (endpoint: median survival time, dose: 50.0 mg/kg/injection, schedule: Q01DX009 (ip), vehicle: Klucel (hydroxypropylcellulose) (HPC), higher = longer survival) was 123 % of control and the T/C (endpoint: median survival time, dose: 100.0 mg/kg/injection, schedule: Q01DX009 (ip), vehicle: Klucel (hydroxypropylcellulose) (HPC), higher = longer survival) was 116 % of control.
`Cn1c(=O)[nH]c2nncnc2c1=O` was tested, and the T/C (endpoint: median survival time, dose: 0.2 mg/kg/injection, schedule: Q01DX009 (ip), vehicle: water, higher = longer survival) was 103 % of control, the T/C (endpoint: median survival time, dose: 0.4 mg/kg/injection, schedule: Q01DX009 (ip), vehicle: water, higher = longer survival) was 119 % of control and the T/C (endpoint: median survival time, dose: 0.8 mg/kg/injection, schedule: Q01DX009 (ip), vehicle: water, higher = longer survival) was 99 % of control. The T/C (endpoint: median survival time, dose: 3.12 mg/kg/injection, schedule: Q01DX009 (ip), vehicle: water, higher = longer survival) was 98 % of control and 103 % of control, the T/C (endpoint: median survival time, dose: 6.25 mg/kg/injection, schedule: Q01DX009 (ip), vehicle: water, higher = longer survival) was 117 % of control and the T/C (endpoint: median survival time, dose: 12.5 mg/kg/injection, schedule: Q01DX009 (ip), vehicle: water, higher = longer survival) was 96 % of control and 99 % of control. For the same molecule, the T/C (endpoint: median survival time, dose: 25.0 mg/kg/injection, schedule: Q01DX009 (ip), vehicle: water, higher = longer survival) was 114 % of control.
For `CN(C)CCCN1c2ccccc2Sc2ccc(Cl)cc21`, the T/C (endpoint: median survival time, dose: 0.06 mg/kg/injection, schedule: Q01DX009 (ip), vehicle: saline, higher = longer survival) was 98 % of control, the T/C (endpoint: median survival time, dose: 0.12 mg/kg/injection, schedule: Q01DX009 (ip), vehicle: saline, higher = longer survival) was 92 % of control and the T/C [1] was 97 % of control. The T/C (endpoint: median survival time, dose: 1.0 mg/kg/injection, schedule: Q01DX009 (ip), vehicle: saline, higher = longer survival) was 98 % of control.
In the case of `CCC1=C(C[C@H]2NCCc3cc(OC)c(OC)cc32)C[C@H]2c3cc(OC)c(OC)cc3CCN2C1`, the T/C (endpoint: median survival time, dose: 2.0 mg/kg/injection, schedule: Q01DX005 (ip), vehicle: saline, higher = longer survival) is reported as 87 % of control, the T/C (endpoint: median survival time, dose: 4.0 mg/kg/injection, schedule: Q01DX005 (ip), vehicle: saline, higher = longer survival) is reported as 93 % of control and the T/C (endpoint: median survival time, dose: 8.0 mg/kg/injection, schedule: Q01DX005 (ip), vehicle: saline, higher = longer survival) is reported as 110 % of control. For the same molecule, the T/C (endpoint: median survival time, dose: 16.0 mg/kg/injection, schedule: Q01DX005 (ip), vehicle: saline, higher = longer survival) was 114 % of control.
For `O=C(O)CCNSc1ccccc1[N+](=O)[O-]`, the T/C [2] was 105 % of control, the T/C [3] was 109 % of control and the T/C [4] was 114 % of control. For the same molecule, the T/C [5] was 100 % of control.
In the case of `CCCCCc1cc(O)c2c(c1)OC(C)(C)c1ccc(C)cc1-2`, the T/C (endpoint: median survival time, dose: 64.0 mg/kg/injection, schedule: Q01DX009 (ip), vehicle: saline, higher = longer survival) is reported as 113 % of control, the T/C (endpoint: median survival time, dose: 128.0 mg/kg/injection, schedule: Q01DX009 (ip), vehicle: saline, higher = longer survival) is reported as 98 % of control and the T/C (endpoint: median survival time, dose: 256.0 mg/kg/injection, schedule: Q01DX009 (ip), vehicle: saline, higher = longer survival) is reported as 117 % of control. The T/C (endpoint: median survival time, dose: 512.0 mg/kg/injection, schedule: Q01DX009 (ip), vehicle: saline, higher = longer survival) was 98 % of control.
`FC(F)(F)c1nc2nc(Cl)c(Cl)nc2[nH]1` was tested, and the T/C [6] was 109 % of control, the T/C [7] was 105 % of control and the T/C [8] was 118 % of control.
For `CCCCC[C@H](O)/C=C/[C@@H]1[C@@H](C/C=C\CCCC(=O)O)[C@@H](O)C[C@H]1O`, the T/C (endpoint: median survival time, dose: 2.5 mg/kg/injection, schedule: Q04DX002 (ip), vehicle: saline with Tween-80, higher = longer survival) was 89 % of control, the T/C (endpoint: median survival time, dose: 5.0 mg/kg/injection, schedule: Q04DX002 (ip), vehicle: saline with Tween-80, higher = longer survival) was 110 % of control and the T/C (endpoint: median survival time, dose: 10.0 mg/kg/injection, schedule: Q04DX002 (ip), vehicle: saline with Tween-80, higher = longer survival) was 106 % of control. The T/C (endpoint: median survival time, dose: 20.0 mg/kg/injection, schedule: Q04DX002 (ip), vehicle: saline with Tween-80, higher = longer survival) was 93 % of control, the T/C (endpoint: median survival time, dose: 40.0 mg/kg/injection, schedule: Q04DX002 (ip), vehicle: saline with Tween-80, higher = longer survival) was 114 % of control and the T/C (endpoint: median survival time, dose: 80.0 mg/kg/injection, schedule: Q04DX002 (ip), vehicle: saline with Tween-80, higher = longer survival) was 86 % of control. For the same molecule, the T/C (endpoint: median survival time, dose: 160.0 mg/kg/injection, schedule: Q04DX002 (ip), vehicle: saline with Tween-80, higher = longer survival) was 90 % of control.
With `COc1cccc2c1C(=O)c1c(O)c3c(c(O)c1C2=O)C[C@@](O)(/C(C)=N/NC(=O)c1ccccc1)C[C@@H]3OC1CC(N)C(O)C(C)O1` (stereo not given in full) the T/C (endpoint: median survival time, dose: 3.0 mg/kg/injection, schedule: Q01DX009 (ip), vehicle: saline, higher = longer survival) was 103 % of control, the T/C [6] was 118 % of control and the T/C (endpoint: median survival time, dose: 6.0 mg/kg/injection, schedule: Q01DX009 (ip), vehicle: saline, higher = longer survival) was 121 % of control. For the same molecule, the T/C (endpoint: median survival time, dose: 15.0 mg/kg/injection, schedule: Q04DX003 (ip), vehicle: saline, higher = longer survival) was 103 % of control and the T/C (endpoint: median survival time, dose: 30.0 mg/kg/injection, schedule: Q01DX001 (ip), vehicle: saline, higher = longer survival) was 93 % of control.
With `CCOC(=O)c1csc(-c2csc(CCNC(=O)c3ccccc3)n2)n1` the T/C (endpoint: median survival time, dose: 6.25 mg/kg/injection, schedule: Q01DX009 (ip), vehicle: saline with Tween-80, higher = longer survival) was 95 % of control, the T/C [2] was 102 % of control and the T/C [3] was 87 % of control. For the same molecule, the T/C [4] was 91 % of control and the T/C [5] was 106 % of control.
In the case of `CC[C@](O)(C(=O)O)c1cc2n(c(=O)c1CO)Cc1cc3ccccc3nc1-2`, the T/C (endpoint: median survival time, dose: 0.25 mg/kg/injection, schedule: Q01DX009 (ip), vehicle: saline, higher = longer survival) is reported as 102 % of control, the T/C [1] is reported as 102 % of control and the T/C (endpoint: median survival time, dose: 1.0 mg/kg/injection, schedule: Q01DX009 (ip), vehicle: Klucel (hydroxypropylcellulose) (HPC), higher = longer survival) is reported as 104 % of control. The T/C (endpoint: median survival time, dose: 2.0 mg/kg/injection, schedule: Q01DX009 (ip), vehicle: Klucel (hydroxypropylcellulose) (HPC), higher = longer survival) was 104 % of control and the T/C (endpoint: median survival time, dose: 2.0 mg/kg/injection, schedule: Q01DX009 (ip), vehicle: saline, higher = longer survival) was 98 % of control.
With `C[C@H](CN1CC(=O)NC(=O)C1)N1CC(=O)NC(=O)C1` the T/C (endpoint: median survival time, dose: 6.25 mg/kg/injection, schedule: Q04DX003 (ip), vehicle: saline, higher = longer survival) was 122 % of control, the T/C [7] was 109 % of control and the T/C (endpoint: median survival time, dose: 12.5 mg/kg/injection, schedule: Q04DX003 (ip), vehicle: saline, higher = longer survival) was 102 % of control. For the same molecule, the T/C [8] was 119 % of control, the T/C (endpoint: median survival time, dose: 16.0 mg/kg/injection, schedule: Q01DX009 (ip), vehicle: water, higher = longer survival) was 96 % of control and the T/C (endpoint: median survival time, dose: 25.0 mg/kg/injection, schedule: Q04DX003 (ip), vehicle: saline, higher = longer survival) was 115 % of control. For the same molecule, the T/C (endpoint: median survival time, dose: 32.0 mg/kg/injection, schedule: Q01DX009 (ip), vehicle: saline, higher = longer survival) was 112 % of control, the T/C (endpoint: median survival time, dose: 32.0 mg/kg/injection, schedule: Q01DX009 (ip), vehicle: water, higher = longer survival) was 109 % of control and the T/C (endpoint: median survival time, dose: 50.0 mg/kg/injection, schedule: Q04DX003 (ip), vehicle: saline, higher = longer survival) was 111 % of control. The T/C (endpoint: median survival time, dose: 100.0 mg/kg/injection, schedule: Q04DX003 (ip), vehicle: saline, higher = longer survival) was 115 % of control, the T/C (endpoint: median survival time, dose: 200.0 mg/kg/injection, schedule: Q04DX003 (ip), vehicle: saline, higher = longer survival) was 122 % of control and the T/C (endpoint: median survival time, dose: 800.0 mg/kg/injection, schedule: Q04DX003 (ip), vehicle: saline, higher = longer survival) was 115 % of control.
For `O=NN(CCF)C(=O)NC1CCS(=O)(=O)CC1`, the T/C (endpoint: median survival time, dose: 24.0 mg/kg/injection, schedule: Q01DX001 (ip), vehicle: other, higher = longer survival) was 156 % of control and the T/C (endpoint: median survival time, dose: 32.0 mg/kg/injection, schedule: Q01DX001 (ip), vehicle: other, higher = longer survival) was 175 % of control.
